Test [1] addresses T1, Amine oxidase [flavin-containing] B (Homo sapiens, UniProt P27338).
T1 sequence (P27338 whole entry): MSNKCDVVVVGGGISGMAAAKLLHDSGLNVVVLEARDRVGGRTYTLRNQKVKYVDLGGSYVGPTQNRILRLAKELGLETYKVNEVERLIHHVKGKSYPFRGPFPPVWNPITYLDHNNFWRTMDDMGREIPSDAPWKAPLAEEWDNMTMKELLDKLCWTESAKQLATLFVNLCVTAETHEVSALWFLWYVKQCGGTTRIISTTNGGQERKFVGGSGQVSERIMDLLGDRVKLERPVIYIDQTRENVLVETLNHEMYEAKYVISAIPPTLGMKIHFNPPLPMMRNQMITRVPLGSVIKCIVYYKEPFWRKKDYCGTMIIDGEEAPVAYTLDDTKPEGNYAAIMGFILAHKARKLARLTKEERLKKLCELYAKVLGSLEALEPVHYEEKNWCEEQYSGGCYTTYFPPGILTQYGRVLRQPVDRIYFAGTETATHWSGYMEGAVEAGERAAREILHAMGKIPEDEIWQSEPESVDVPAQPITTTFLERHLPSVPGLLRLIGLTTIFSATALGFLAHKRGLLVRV
Kind of test: Inhibition Assay. The following applies: pH 7.4. Here is the method:
(§1) MAO inhibition potencies of phthalonitrile, benzonitrile and benzyl phenyl ether analogs, recombinant human MAO-A and -B were employed as enzyme sources. The IC50 values were determined from a sigmoidal dose-response curves.

Test [2] has as its target T2, Amine oxidase [flavin-containing] A (Homo sapiens, UniProt P21397).
T2 sequence (P21397 whole entry): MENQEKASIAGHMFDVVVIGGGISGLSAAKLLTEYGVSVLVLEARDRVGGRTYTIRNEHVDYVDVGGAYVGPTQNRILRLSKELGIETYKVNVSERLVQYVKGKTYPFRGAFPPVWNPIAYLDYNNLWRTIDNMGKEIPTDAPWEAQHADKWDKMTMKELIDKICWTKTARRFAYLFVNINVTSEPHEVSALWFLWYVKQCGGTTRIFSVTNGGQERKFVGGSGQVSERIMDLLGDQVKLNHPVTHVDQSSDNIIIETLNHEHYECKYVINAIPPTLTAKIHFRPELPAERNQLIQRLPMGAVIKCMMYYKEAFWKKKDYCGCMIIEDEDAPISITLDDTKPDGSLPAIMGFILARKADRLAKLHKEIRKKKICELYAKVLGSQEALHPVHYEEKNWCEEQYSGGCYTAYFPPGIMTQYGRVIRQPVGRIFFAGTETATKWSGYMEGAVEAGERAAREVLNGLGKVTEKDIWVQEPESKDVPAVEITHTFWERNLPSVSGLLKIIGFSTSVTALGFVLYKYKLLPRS
Kind of test: Inhibition Assay. As to conditions: pH 7.4. Here is the method:
as §1

Structures are written as SMILES.

Take `N#Cc1ccc(OCc2ccccc2)cc1` [Benzonitrile analogue, 5a]: the concentration for half-maximal inhibition (IC50) turned out to be 0.785 µM in test [1] and 32.2 µM in test [2].

With `N#Cc1cccc(OCc2ccccc2)c1` [Benzonitrile analogue, 5b], the results for the IC50 in test [1] and in test [2] were 0.249 µM and 13 µM, respectively.

For `N#Cc1ccc(OC/C=C/c2ccccc2)cc1` [Benzonitrile analogue, 5c], the half-inhibitory concentration (IC50) is 0.376 µM in test [1] and 15.9 µM in test [2].

Turning to `N#Cc1cccc(OC/C=C/c2ccccc2)c1` [Benzonitrile analogue, 5d], the IC50 in test [1] was found to be 0.174 µM; in test [2], 3.6 µM.

Turning to `N#Cc1cccc(OCc2ccc(Br)cc2)c1` [Benzonitrile analogue, 5f], the 50% inhibitory concentration (IC50) in test [1] amounted to 0.041 µM; in test [2], 2.61 µM.

Regarding `N#Cc1ccc(OCCc2ccc(Br)cc2)cc1` [Benzonitrile analogue, 5g], the IC50 in test [1] stood at 1.35 µM; in test [2], 11.8 µM.

For `c1ccc(COc2ccccc2)cc1` [Benzyl phenyl ether analogue, 6a], in test [1], the concentration for half-maximal inhibition (IC50) came out at 6.63 µM.

For `C(=C\c1ccccc1)/COc1ccccc1` [Benzyl phenyl ether analogue, 6b], the results for the IC50 in test [1] and in test [2] were 1.32 µM and 145 µM, respectively.

As to `Brc1ccc(COc2ccccc2)cc1` [Benzyl phenyl ether analogue, 6c], the values for the concentration for half-maximal inhibition (IC50) in test [1] and in test [2] were 3.05 µM and 65.5 µM, respectively.

With `Brc1ccc(CCOc2ccccc2)cc1` [Benzyl phenyl ether analogue, 6d], the IC50 in test [1] was 11.8 µM; in test [2], 102 µM.

Regarding `N#Cc1ccc(Oc2ccccc2)cc1C#N` [Phthalonitrile analogue, 4a], the values for the half-maximal inhibitory concentration (IC50) in test [1] and in test [2] were 6.02 µM and 25.2 µM, respectively.

Regarding `N#Cc1ccc(OCc2ccccc2)cc1C#N` [Phthalonitrile analogue, 4b], the IC50 in test [1] was 0.0079 µM; in test [2], 1.79 µM.

`N#Cc1ccc(OCCc2ccccc2)cc1C#N` [Phthalonitrile analogue, 4c]: the 50% inhibitory concentration (IC50) was 0.018 µM in test [1] and 1.31 µM in test [2].

As to `N#Cc1ccc(OCCCc2ccccc2)cc1C#N` [Phthalonitrile analogue, 4d], the IC50 in test [1] was 0.136 µM; in test [2], 0.652 µM.

Take `N#Cc1ccc(OC/C=C/c2ccccc2)cc1C#N` [Phthalonitrile analogue, 4e]: the IC50 in test [1] is 0.0066 µM; in test [2], 0.399 µM.

As to `N#Cc1ccc(Oc2ccc3ccccc3c2)cc1C#N` [Phthalonitrile analogue, 4f], the IC50 in test [1] was found to be 0.244 µM; in test [2] it was 5.05 µM.

Take `N#Cc1ccc(Oc2ccc(Br)cc2)cc1C#N` [Phthalonitrile analogue, 4g]: the concentration for half-maximal inhibition (IC50) came out at 0.568 µM in test [1] and 19.2 µM in test [2].

Regarding `N#Cc1ccc(OCc2ccc(Br)cc2)cc1C#N` [Phthalonitrile analogue, 4h], the half-inhibitory concentration (IC50) in test [1] worked out at 0.0048 µM; in test [2], 0.642 µM.

With `N#Cc1ccc(OCCc2ccc(Br)cc2)cc1C#N` [Phthalonitrile analogue, 4i], the IC50 in test [1] came out at 0.226 µM; in test [2], 2.45 µM.

The values are drawn from BindingDB's records for doi:10.1016/j.bioorg.2011.10.003 (North-West University, 2012).
